Measurements reported in ChEMBL document CHEMBL1133489, “Synthesis of FF-MAS from lithocholic acid” (Bioorg Med Chem Lett, 2000).

Organism: Mus musculus
Experiment: Compound was evaluated for meiosis inducing effect on immature mouse oocytes; Positive
Type: functional

SMILES: CC(C)=CCC[C@@H](C)[C@H]1CC=C2C3=C(CC[C@@]21C)[C@@]1(C)CC[C@H](O)C(C)(C)[C@@H]1CC3
- Activity: Positive
